ChEMBL document CHEMBL1759891, “Structure based design, synthesis and SAR of cyclic hydroxyethylamine (HEA) BACE-1 inhibitors” (Bioorg Med Chem Lett, 2011)

Columns and labels:
[1] = target: Cathepsin D (Homo sapiens, UniProt P07339); test: Inhibition of human cathepsin D
[2] = tested on: MDR1 (P-gp); test: Permeability from apical to basolateral side in dog MDCK cells expressing human MDR-1 gene; format: ADME, cell-based, Canis lupus familiaris; conditions: read-out: permeability
[3] = tested on: MDR1 (P-gp); test: Permeability from basolateral to apical side in dog MDCK cells expressing human MDR-1 gene; format: ADME, cell-based, Canis lupus familiaris; conditions: read-out: permeability
[4] = target: T1, Beta-secretase 1 (Homo sapiens, UniProt P56817); test: Inhibition of human BACE-1
T1 sequence (P56817 whole entry): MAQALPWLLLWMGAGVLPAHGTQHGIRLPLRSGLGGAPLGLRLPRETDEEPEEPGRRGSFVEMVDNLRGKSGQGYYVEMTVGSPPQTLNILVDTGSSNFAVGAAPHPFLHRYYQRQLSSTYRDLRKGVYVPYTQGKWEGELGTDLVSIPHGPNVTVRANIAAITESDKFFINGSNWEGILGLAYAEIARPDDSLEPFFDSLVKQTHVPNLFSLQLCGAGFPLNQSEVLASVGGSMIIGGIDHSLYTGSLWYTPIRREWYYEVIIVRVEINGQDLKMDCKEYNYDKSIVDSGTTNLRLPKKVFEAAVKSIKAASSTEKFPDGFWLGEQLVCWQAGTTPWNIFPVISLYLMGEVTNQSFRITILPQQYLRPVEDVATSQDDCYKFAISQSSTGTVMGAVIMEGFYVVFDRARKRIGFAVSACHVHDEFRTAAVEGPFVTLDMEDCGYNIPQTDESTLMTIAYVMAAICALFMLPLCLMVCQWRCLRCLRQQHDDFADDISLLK

[5] = tested on: MDR1 (P-gp); test: Efflux ratio of permeability from basolateral to apical side to apical to basolateral side of dog MDCK cells expressing human MDR1; format: ADME, cell-based, Canis lupus familiaris
[6] = target: T1, Beta-secretase 1; test: Inhibition of human BACE-1-mediated amyloid beta 40 release in APP-transfected […] cells; format: cell-based
[7] = Metabolic stability in rat liver microsomes assessed as half life; format: ADME, Microsome
[8] = tested on: Brain; test: Drug level in brain of mouse at 2 umol/kg, iv; format: ADME, organism-based; conditions: in vivo, read-out: Drug uptake
[9] = tested on: Plasma; test: Drug level in plasma of mouse at 2 umol/kg, iv; format: ADME; conditions: read-out: Drug uptake
[10] = organism: Homo sapiens; test: Selectivity ratio of IC50 for human cathepsin D to IC50 for human BACE-1
[11] = Dissociation constant, pKa of the compound; format: physicochemical

Chain of Cathepsin D (P07339 65-162 limits assumed): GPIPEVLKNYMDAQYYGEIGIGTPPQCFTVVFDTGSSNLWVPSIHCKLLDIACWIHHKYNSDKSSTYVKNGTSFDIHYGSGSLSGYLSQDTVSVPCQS
Chain of Cathepsin D (P07339 169-412 limits assumed): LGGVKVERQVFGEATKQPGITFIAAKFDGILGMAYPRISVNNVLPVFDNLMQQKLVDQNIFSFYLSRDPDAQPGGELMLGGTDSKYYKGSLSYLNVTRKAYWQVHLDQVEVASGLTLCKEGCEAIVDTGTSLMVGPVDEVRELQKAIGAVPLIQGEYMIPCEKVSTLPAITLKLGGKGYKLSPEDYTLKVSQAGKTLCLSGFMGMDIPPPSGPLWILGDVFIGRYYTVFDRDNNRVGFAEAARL

Row | IC50 [1] [µM] | Papp A→B [2] [×10⁻⁶ cm/s] | Papp B→A [3] [×10⁻⁶ cm/s] | IC50 [4] [µM] | efflux ratio [5] | IC50 [6] [µM] | half-life [7] [min] | concentration [8] [nM] | concentration [9] [nM] | Ratio IC50 [10] | pKa [11] | Compound
1 | 2.1 | 1.8 | 30 | 1.2 | 17 | – | – | – | – | – | – | CC(C)c1cccc(CN[C@H]2CS(=O)(=O)C[C@@H](Cc3ccc(O)c(CO)c3)[C@@H]2O)c1
2 | – | – | – | > 100 | – | – | – | – | – | – | – | N[C@H]1CS(=O)(=O)C[C@@H](Cc2ccc(O)c(Br)c2)[C@@H]1O
3 | 2.3 | 5.4 | 7.7 | 0.76 | 1.4 | – | – | – | – | – | – | CC(C)c1cccc(CN[C@H]2CS(=O)(=O)C[C@@H](Cc3cccc(Br)c3)[C@@H]2O)c1 (racemic)
4 | 0.42 | 7.7 | 16 | 0.055 | 2.1 | 0.55 | 6 | 180 | 320 | – | – | CC(C)(C)c1cccc(CN[C@H]2CS(=O)(=O)C[C@@H](Cc3ccc(O)c(Br)c3)[C@@H]2O)c1
5 | 1.8 | 4.2 | 18 | 0.19 | 4.4 | – | – | – | – | – | – | CCCc1cc(C[C@@H]2CS(=O)(=O)C[C@H](NCc3cccc(C(C)C)c3)[C@H]2O)ccc1O
6 | 1.2 | 11 | 33 | 0.3 | 3 | 1.5 | 3 | 210 | 1030 | 10 | – | CC(C)c1cccc(CN[C@H]2CS(=O)(=O)C[C@@H](Cc3ccc(O)c(Br)c3)[C@@H]2O)c1
7 | – | – | – | 4.3 | – | – | – | – | – | – | – | CC(C)c1ccnc(CN[C@H]2CS(=O)(=O)C[C@@H](Cc3ccc(O)c(Br)c3)[C@@H]2O)c1
8 | – | – | – | 4.2 | – | – | – | – | – | – | – | O=S1(=O)C[C@@H](Cc2ccc(O)c(Br)c2)[C@H](O)[C@@H](NCc2cc(Cl)cc(Cl)c2)C1
9 | 7.1 | – | – | 6.2 | – | – | – | – | – | – | – | Cc1cccc(Cc2cc(C[C@@H]3CS(=O)(=O)C[C@H](NCc4cccc(C(C)C)c4)[C@H]3O)ccc2O)c1 (racemic)
10 | 1.9 | 19 | 24 | 1.1 | 1.2 | – | – | – | – | – | – | CC(C)c1cccc(CN[C@H]2CS(=O)(=O)C[C@@H](Cc3ccccc3)[C@@H]2O)c1 (racemic)
11 | 1.9 | 0.8 | 4.2 | 0.15 | 5.5 | – | – | – | – | – | – | CCCCc1cc(C[C@@H]2CS(=O)(=O)C[C@H](NCc3cccc(C(C)C)c3)[C@H]2O)ccc1O
12 | 0.67 | – | – | 1.4 | – | 8.5 | – | – | – | – | – | CC(C)Oc1cccc(CN[C@H]2CS(=O)(=O)C[C@@H](Cc3ccc(O)c(Br)c3)[C@@H]2O)c1
13 | 5.4 | 9 | 37 | 1.8 | 4.2 | – | – | – | – | – | – | CC(C)c1cccc(CN[C@H]2CS(=O)(=O)C[C@@H](Cc3ccc(O)cc3)[C@@H]2O)c1 (racemic)
14 | 2.4 | 3.7 | 9.7 | 2.8 | 2.6 | – | – | – | – | – | – | COc1ccc(C[C@@H]2CS(=O)(=O)C[C@H](NCc3cccc(C(C)C)c3)[C@H]2O)cc1Br
15 | – | – | – | 66 | – | – | – | – | – | – | – | O=S1(=O)C[C@@H](Cc2ccc(O)c(Br)c2)[C@H](O)[C@@H](NCc2ccccc2)C1
16 | 6.4 | 1.4 | 26 | – | 19 | – | 4 | < 50 | 670 | – | – | CCCN1C(=O)OC[C@@H]1Cc1cc(C[C@@H]2CS(=O)(=O)C[C@H](NCc3cccc(C(C)C)c3)[C@H]2O)ccc1O
17 | 2 | 5.7 | 7.9 | 2.3 | 1.4 | – | – | – | – | – | – | CCCOc1cccc(C[C@@H]2CS(=O)(=O)C[C@H](NCc3cccc(C(C)C)c3)[C@H]2O)c1 (racemic)
18 | 0.9 | 7 | 13 | 1.1 | 1.8 | – | – | – | – | – | – | CCCOCc1cccc(C[C@@H]2CS(=O)(=O)C[C@H](NCc3cccc(C(C)C)c3)[C@H]2O)c1 (racemic)
19 | – | – | – | 55 | – | – | – | – | – | – | 7.1 | CC(C)c1cccc(CN[C@H]2COC[C@@H](Cc3ccc(O)c(Br)c3)[C@@H]2O)c1
20 | 2.4 | 15 | 45 | 0.37 | 3.1 | – | – | – | – | – | – | CCc1cc(C[C@@H]2CS(=O)(=O)C[C@H](NCc3cccc(C(C)C)c3)[C@H]2O)ccc1O
21 | 4.7 | 2.2 | 41 | 3.2 | 18 | – | – | – | – | – | – | CC(=O)N[C@@H](Cc1cc(F)cc(F)c1)[C@H](O)CNCc1cccc(C(C)C)c1
22 | – | – | – | – | – | – | – | – | – | – | 5.7 | O=S1(=O)C[C@@H](Cc2ccc(O)c(Br)c2)[C@H](O)[C@@H](NCc2cccc(C3CC3)c2)C1
23 | 1.7 | 0.9 | 28 | 0.99 | 32 | – | – | – | – | – | – | CC(C)c1cccc(CN[C@H]2CS(=O)(=O)C[C@@H](Cc3ccc(O)c(CCO)c3)[C@@H]2O)c1

Row | Compound | IC50 [1] [µM] | Papp A→B [2] [×10⁻⁶ cm/s] | Papp B→A [3] [×10⁻⁶ cm/s] | IC50 [4] [µM] | efflux ratio [5] | IC50 [6] [µM] | half-life [7] [min] | concentration [8] [nM] | concentration [9] [nM] | Ratio IC50 [10] | pKa [11]
24 | CNC(=O)Oc1ccc(C[C@@H]2CS(=O)(=O)C[C@H](NCc3cccc(C(C)C)c3)[C@H]2O)cc1Br | 0.37 | 3.8 | 88 | 0.06 | 23 | – | – | – | – | – | –
